Tests used:
Type in all cases: functional
Felis catus [1] = assay: Evaluated for its relative defibrillating activity in male cats 10 min after injection at concentration 1 mg/Kg
Felis catus [2] = assay: Evaluated for its relative defibrillating activity in male cats 10 min after injection at concentration 2 mg/Kg
Felis catus [3] = assay: Evaluated for its relative defibrillating activity in male cats 10 min after injection at concentration 3 mg/Kg
Felis catus [4] = assay: Evaluated for its relative defibrillating activity in male cats 10 min after injection at concentration 0.5 mg/Kg
Felis catus [5] = assay: Evaluated for its relative defibrillating activity in male cats 10 min after injection at 0.5 mg/Kg
Felis catus [6] = assay: Evaluated for its relative defibrillating activity in male cats 10 min after injection at 1 mg/Kg
Felis catus [7] = assay: Evaluated for its relative defibrillating activity in male cats 10 min after injection at 2 mg/Kg
Felis catus [8] = assay: Evaluated for its relative defibrillating activity in male cats 10 min after injection at 3 mg/Kg

| Compound | Relative activity (Felis catus [1]) [%] | Relative activity (Felis catus [2]) [%] | Relative activity (Felis catus [3]) [%] | Relative activity (Felis catus [4]) [%] | Relative activity (Felis catus [5]) [%] | Relative activity (Felis catus [6]) [%] | Relative activity (Felis catus [7]) [%] | Relative activity (Felis catus [8]) [%] |
| --- | --- | --- | --- | --- | --- | --- | --- | --- |
| CC(C)(C)NCCC(=O)N1c2ccccc2CCc2ccccc21.Cl | 50 | 100 | 100 |  |  |  |  |  |
| CC(C)NC[C@H](O)CN1c2ccccc2CCc2ccccc21.Cl | 100 | 100 |  | 75 |  |  |  |  |
| CC(C)CNCCC(=O)N1c2ccccc2CCc2ccccc21.Cl | 0 | 0 | 0 |  |  |  |  |  |
| CNCCC(=O)N1c2ccccc2NC(=O)c2ccccc21.Cl | 0 | 0 | 0 |  |  |  |  |  |
| CC(C)NCC(O)CN1c2ccccc2CCc2ccccc21.Cl (configuration not stated) | 50 | 100 | 100 | 50 |  |  |  |  |
| CCNCCC(=O)N1c2ccccc2NC(=O)c2ccccc21.Cl |  | 0 | 0 |  |  |  |  |  |
| CC(C)NCCC(=O)N1c2ccccc2NC(=O)c2ccccc21.Cl |  | 0 | 0 |  |  |  |  |  |
| CNCCC(=O)N1c2ccccc2CCc2ccccc21.Cl |  |  |  |  | 0 | 25 | 100 | 100 |
| CC(C)NCCC(=O)N1c2ccccc2CCc2ccccc21.Cl | 75 | 100 |  | 25 |  |  |  | 100 |
| CC(C)NC[C@@H](O)CN1c2ccccc2CCc2ccccc21.Cl | 50 | 100 |  | 50 |  |  |  |  |
| Cl.O=C(CCNCc1ccccc1)N1c2ccccc2CCc2ccccc21 | 0 | 0 | 0 |  |  |  |  |  |
| CCC(C)NCCC(=O)N1c2ccccc2CCc2ccccc21.Cl (configuration not stated) | 0 | 0 | 0 |  |  |  |  |  |
| CCNCCC(=O)N1c2ccccc2CCc2ccccc21.Cl |  |  |  |  | 0 | 50 | 75 | 100 |
| CNCCCN1c2ccccc2CCc2ccccc21 [DESIPRAMINE] | 25 | 75 | 100 |  |  |  |  |  |
| CN(C)CCCN1c2ccccc2CCc2ccccc21 [IMIPRAMINE] | 0 | 50 | 75 |  |  |  |  |  |

From ChEMBL document CHEMBL1133839, “A new class of antiarrhythmic-defibrillatory agents” (2001)
